Activity calls are given as the source filed them. The calls are words filed in the database; no cut-off is given here.
Key:
Rattus norvegicus [1] = assay: Hypotensive activity against normotensive anesthetized Wistar rat assessed as reduction in mean arterial blood pressure up to 5 ug/kg, iv; format: functional, organism-based
Rattus norvegicus [2] = assay: Hypotensive activity against normotensive anesthetized Wistar rat assessed as reduction in mean arterial blood pressure at 1 ug/kg, iv; format: functional; design: scale not given: the % may be the effect or the level left
Rattus norvegicus [3] = assay: Hypotensive activity against normotensive anesthetized Wistar rat assessed as reduction in mean arterial blood pressure up to 5 mg/kg, iv
Rattus norvegicus [4] = assay: Hypotensive activity against normotensive anesthetized Wistar rat assessed as reduction in mean arterial blood pressure at 3 mg/kg, iv; design: scale not given: the % may be the effect or the level left
Rattus norvegicus [5] = assay: Hypotensive activity against normotensive anesthetized Wistar rat assessed as reduction in mean arterial blood pressure at 3 ug/kg, iv; format: functional; design: scale not given: the % may be the effect or the level left

Structure (SMILES): CCOC(=S)NCc1ccc(O[C@@H]2O[C@@H](C)[C@H](OC(C)=O)[C@@H](O)[C@H]2O)cc1 [listing 1 of 3 here]
- Activity (Rattus norvegicus [1]): Active

Structure (SMILES): CC(=O)OCC[N+](C)(C)C [ACETYLCHOLINE]
- Activity (Rattus norvegicus [2]): 59.5%

Structure (SMILES): C[C@@H]1O[C@@H](Oc2ccc(CC#N)cc2)[C@H](O)[C@H](O)[C@H]1O
- Activity (Rattus norvegicus [3]): inactive

Structure (SMILES): CC(=O)O[C@@H]1[C@@H](O)[C@@H](O)[C@H](Oc2ccc(CN=C=S)cc2)O[C@H]1C
- Activity (Rattus norvegicus [3]): Active
- Activity (Rattus norvegicus [4]): 34.91%

Structure (SMILES): CC(=O)O[C@@H]1[C@@H](O)[C@@H](O)[C@H](Oc2ccc(CC#N)cc2)O[C@H]1C
- Activity (Rattus norvegicus [3]): inactive

Structure (SMILES): CCOC(=S)NCc1ccc(O[C@@H]2O[C@@H](C)[C@H](OC(C)=O)[C@@H](O)[C@H]2O)cc1 [listing 2 of 3 here]
- Activity (Rattus norvegicus [5]): 37.51%

Structure (SMILES): CCOC(=S)NCc1ccc(O[C@@H]2O[C@@H](C)[C@H](OC(C)=O)[C@@H](O)[C@H]2O)cc1 [listing 3 of 3 here]
- Activity (Rattus norvegicus [5]): 40.33%

From ChEMBL document CHEMBL1148059, “Isolation and structure elucidation of new nitrile and mustard oil glycosides from Moringa oleifera and their effect on blood pressure” (1994)
